Reference: the supplement of paper PMC10307832

How the values were obtained:
Test in all cases: relative viability (nuclei count vs DMSO), 5 days (fraction); higher = more cells survive
LCLC-103H = test system: LCLC-103H
Summary of the method: (§1)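 Relative viability was taken as the ratio of nuclei in treated wells to nuclei in vehicle wells. Lung cancer cell lines in 1536-well plates received compounds by pin tool one day after seeding, either one drug alone or a fixed anchor-drug dose plus five library-drug doses (not always all listed) in √10 steps. Nuclei were counted on 4× images after 5 days of treatment, and values are medians of duplicate plates.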

NCI-H1944 = test system: NCI-H1944
Summary of the method: as §1

LU99A = test system: LU99A
Summary of the method: as §1

H3255 = test system: H3255
Summary of the method: as §1

SW 1573 = test system: SW 1573
Summary of the method: as §1

RERF-LC-KJ = test system: RERF-LC-KJ
Summary of the method: as §1

NCI-H23 = test system: NCI-H23
Summary of the method: as §1

PC-3 [JPC-3] = test system: PC-3 [JPC-3]
Summary of the method: as §1

NCI-H1793 = test system: NCI-H1793
Summary of the method: as §1

A-427 = test system: A-427
Summary of the method: as §1

NCI-H1563 = test system: NCI-H1563
Summary of the method: as §1

NCI-H460 = test system: NCI-H460
Summary of the method: as §1

NCI-H2347 = test system: NCI-H2347
Summary of the method: as §1

PC-14 = test system: PC-14
Summary of the method: as §1

LCLC-97TM1 = test system: LCLC-97TM1
Summary of the method: as §1

COR-L23 = test system: COR-L23
Summary of the method: as §1

201T = test system: 201T
Summary of the method: as §1

NCI-H1651 = test system: NCI-H1651
Summary of the method: as §1

NCI-H650 = test system: NCI-H650
Summary of the method: as §1

NCI-H727 = test system: NCI-H727
Summary of the method: as §1

NCI-H838 = test system: NCI-H838
Summary of the method: as §1

LK-2 = test system: LK-2
Summary of the method: as §1

Question: `C[C@@H]1CN(CC(=O)Nc2ccc3c(c2)Cc2cccc(-c4cc(=O)cc(N5CCOCC5)o4)c2S3)C[C@H](C)O1` + C[C@]1(O)C[C@@H](c2nc(-c3ccc4ccc(-c5ccccc5)nc4c3)c3c(N)nccn32)C1 [Linsitinib] (partner 1 µM) was tested. Which relative viability (LCLC-103H; first compound 0.04 µM) did it give?
Answer: Its relative viability is 1.09.

Question: What about the relative viability (LCLC-103H; first compound 0.1265 µM) of the same compound?
Answer: Its relative viability is 0.896.

Question: And the relative viability (LCLC-103H; first compound 0.4 µM)?
Answer: The relative viability was 1.18.

Question: And the relative viability (LCLC-103H; first compound 4 µM)?
Answer: Its relative viability is 1.14.

Question: What about the relative viability (NCI-H1944; first compound 0.1265 µM) of the same compound?
Answer: Its relative viability is 1.24.

Question: And the relative viability (NCI-H1944; first compound 0.4 µM)?
Answer: The relative viability was 1.36.

Question: And the relative viability (NCI-H1944; first compound 4 µM)?
Answer: The relative viability was 1.22.

Question: And the relative viability (LU99A; first compound 0.04 µM)?
Answer: Its relative viability is 0.489.

Question: And the relative viability (LU99A; first compound 0.1265 µM)?
Answer: Its relative viability is 0.46.

Question: What about the relative viability (LU99A; first compound 0.4 µM) of the same compound?
Answer: Its relative viability is 0.572.

Question: And the relative viability (LU99A; first compound 4 µM)?
Answer: Its relative viability is 0.596.

Question: And the relative viability (H3255; first compound 0.04 µM)?
Answer: Its relative viability is 0.934.

Question: And the relative viability (H3255; first compound 0.1265 µM)?
Answer: The relative viability was 1.04.

Question: And the relative viability (H3255; first compound 0.4 µM)?
Answer: Its relative viability is 0.818.

Question: What about the relative viability (H3255; first compound 4 µM) of the same compound?
Answer: Its relative viability is 0.879.

Question: What about the relative viability (SW 1573; first compound 0.04 µM) of the same compound?
Answer: Its relative viability is 0.814.

Question: What about the relative viability (SW 1573; first compound 0.1265 µM) of the same compound?
Answer: The relative viability was 0.914.

Question: And the relative viability (SW 1573; first compound 0.4 µM)?
Answer: The relative viability was 0.646.

Question: And the relative viability (SW 1573; first compound 4 µM)?
Answer: The relative viability was 0.771.

Question: What about the relative viability (RERF-LC-KJ; first compound 0.04 µM) of the same compound?
Answer: Its relative viability is 0.922.

Question: What about the relative viability (RERF-LC-KJ; first compound 0.1265 µM) of the same compound?
Answer: Its relative viability is 0.907.

Question: What about the relative viability (RERF-LC-KJ; first compound 0.4 µM) of the same compound?
Answer: The relative viability was 0.91.

Question: What about the relative viability (RERF-LC-KJ; first compound 4 µM) of the same compound?
Answer: Its relative viability is 0.774.

Question: And the relative viability (NCI-H23; first compound 0.04 µM)?
Answer: The relative viability was 0.609.

Question: And the relative viability (NCI-H23; first compound 0.1265 µM)?
Answer: Its relative viability is 0.496.

Question: And the relative viability (NCI-H23; first compound 0.4 µM)?
Answer: Its relative viability is 0.489.

Question: What about the relative viability (NCI-H23; first compound 4 µM) of the same compound?
Answer: Its relative viability is 0.494.

Question: What about the relative viability (PC-3 [JPC-3]; first compound 0.04 µM) of the same compound?
Answer: Its relative viability is 1.06.

Question: And the relative viability (PC-3 [JPC-3]; first compound 0.1265 µM)?
Answer: Its relative viability is 0.993.

Question: And the relative viability (PC-3 [JPC-3]; first compound 0.4 µM)?
Answer: Its relative viability is 0.952.

Question: And the relative viability (PC-3 [JPC-3]; first compound 4 µM)?
Answer: Its relative viability is 0.868.

Question: And the relative viability (NCI-H1793; first compound 0.04 µM)?
Answer: Its relative viability is 1.02.

Question: And the relative viability (NCI-H1793; first compound 0.1265 µM)?
Answer: The relative viability was 0.695.

Question: What about the relative viability (NCI-H1793; first compound 0.4 µM) of the same compound?
Answer: Its relative viability is 0.779.

Question: And the relative viability (NCI-H1793; first compound 4 µM)?
Answer: The relative viability was 0.445.

Question: And the relative viability (A-427; first compound 0.04 µM)?
Answer: The relative viability was 1.23.

Question: What about the relative viability (A-427; first compound 0.1265 µM) of the same compound?
Answer: The relative viability was 1.14.

Question: And the relative viability (A-427; first compound 0.4 µM)?
Answer: The relative viability was 1.12.

Question: And the relative viability (A-427; first compound 4 µM)?
Answer: The relative viability was 1.11.

Question: And the relative viability (NCI-H1563; first compound 0.04 µM)?
Answer: The relative viability was 1.17.

Question: What about the relative viability (NCI-H1563; first compound 0.1265 µM) of the same compound?
Answer: Its relative viability is 1.28.

Question: What about the relative viability (NCI-H1563; first compound 0.4 µM) of the same compound?
Answer: Its relative viability is 0.988.

Question: And the relative viability (NCI-H1563; first compound 4 µM)?
Answer: The relative viability was 1.1.

Question: And the relative viability (NCI-H460; first compound 0.04 µM)?
Answer: The relative viability was 0.858.

Question: What about the relative viability (NCI-H460; first compound 0.1265 µM) of the same compound?
Answer: The relative viability was 0.726.

Question: And the relative viability (NCI-H460; first compound 0.4 µM)?
Answer: The relative viability was 0.682.

Question: And the relative viability (NCI-H460; first compound 4 µM)?
Answer: The relative viability was 0.371.

Question: What about the relative viability (NCI-H2347; first compound 0.04 µM) of the same compound?
Answer: Its relative viability is 0.883.

Question: And the relative viability (NCI-H2347; first compound 0.1265 µM)?
Answer: Its relative viability is 1.05.

Question: And the relative viability (NCI-H2347; first compound 0.4 µM)?
Answer: The relative viability was 1.01.

Question: And the relative viability (NCI-H2347; first compound 4 µM)?
Answer: Its relative viability is 1.02.

Question: What about the relative viability (PC-14; first compound 0.04 µM) of the same compound?
Answer: Its relative viability is 0.963.

Question: And the relative viability (PC-14; first compound 0.1265 µM)?
Answer: The relative viability was 0.902.

Question: What about the relative viability (PC-14; first compound 0.4 µM) of the same compound?
Answer: The relative viability was 0.937.

Question: What about the relative viability (PC-14; first compound 4 µM) of the same compound?
Answer: The relative viability was 0.754.

Question: And the relative viability (LCLC-97TM1; first compound 0.1265 µM)?
Answer: The relative viability was 0.157.

Question: And the relative viability (LCLC-97TM1; first compound 0.4 µM)?
Answer: The relative viability was 0.204.

Question: And the relative viability (LCLC-97TM1; first compound 4 µM)?
Answer: Its relative viability is 0.204.

Question: And the relative viability (COR-L23; first compound 0.04 µM)?
Answer: The relative viability was 0.97.

Question: What about the relative viability (COR-L23; first compound 0.1265 µM) of the same compound?
Answer: The relative viability was 0.878.

Question: And the relative viability (COR-L23; first compound 0.4 µM)?
Answer: The relative viability was 0.936.

Question: What about the relative viability (COR-L23; first compound 4 µM) of the same compound?
Answer: Its relative viability is 0.796.

Question: And the relative viability (201T; first compound 0.04 µM)?
Answer: Its relative viability is 1.09.

Question: And the relative viability (201T; first compound 0.1265 µM)?
Answer: Its relative viability is 1.01.

Question: And the relative viability (201T; first compound 0.4 µM)?
Answer: The relative viability was 1.01.

Question: And the relative viability (201T; first compound 4 µM)?
Answer: Its relative viability is 1.01.

Question: What about the relative viability (NCI-H1651; first compound 0.04 µM) of the same compound?
Answer: Its relative viability is 1.01.

Question: And the relative viability (NCI-H1651; first compound 0.1265 µM)?
Answer: Its relative viability is 0.944.

Question: What about the relative viability (NCI-H1651; first compound 0.4 µM) of the same compound?
Answer: Its relative viability is 0.757.

Question: What about the relative viability (NCI-H1651; first compound 4 µM) of the same compound?
Answer: Its relative viability is 0.96.

Question: And the relative viability (NCI-H650; first compound 0.04 µM)?
Answer: The relative viability was 0.85.

Question: What about the relative viability (NCI-H650; first compound 0.1265 µM) of the same compound?
Answer: The relative viability was 0.729.

Question: What about the relative viability (NCI-H650; first compound 0.4 µM) of the same compound?
Answer: The relative viability was 0.86.

Question: What about the relative viability (NCI-H650; first compound 4 µM) of the same compound?
Answer: Its relative viability is 0.584.

Question: And the relative viability (NCI-H727; first compound 0.04 µM)?
Answer: The relative viability was 0.38.

Question: What about the relative viability (NCI-H727; first compound 0.1265 µM) of the same compound?
Answer: Its relative viability is 0.348.

Question: What about the relative viability (NCI-H727; first compound 0.4 µM) of the same compound?
Answer: Its relative viability is 0.332.

Question: What about the relative viability (NCI-H727; first compound 4 µM) of the same compound?
Answer: Its relative viability is 0.3.

Question: And the relative viability (NCI-H838; first compound 0.04 µM)?
Answer: The relative viability was 0.931.

Question: What about the relative viability (NCI-H838; first compound 0.1265 µM) of the same compound?
Answer: Its relative viability is 0.984.

Question: And the relative viability (NCI-H838; first compound 0.4 µM)?
Answer: Its relative viability is 0.871.

Question: What about the relative viability (NCI-H838; first compound 4 µM) of the same compound?
Answer: The relative viability was 0.688.

Question: What about the relative viability (LK-2; first compound 0.04 µM) of the same compound?
Answer: Its relative viability is 0.255.

Question: What about the relative viability (LK-2; first compound 0.1265 µM) of the same compound?
Answer: The relative viability was 0.394.

Question: And the relative viability (LK-2; first compound 0.4 µM)?
Answer: Its relative viability is 0.666.

Question: What about the relative viability (LK-2; first compound 4 µM) of the same compound?
Answer: The relative viability was 0.824.
